Experimental data published in article PMC5099944, “Design, synthesis and biological evaluation of hybrids of β-carboline and salicylic acid as potential anticancer and apoptosis inducing agents” (Scientific Reports, 2016).
“Also recorded” adds a separate entry of the source.

Key:
HCT116 cells = assay: MTT assay, proliferation of HCT116 cells; format: cell-based; conditions: Homo sapiens, HCT-116, 48 h, read-out: In vitro cytotoxicity (IC50) HCT116
Procedure: (§1) The in vitro antitumor activities of the synthesized compounds 7a-l and 8a-l against five human cancer cells were evaluated in MTT assays using 5-fluorouracil (5-FU) and harmine as positive controls. These cells are human hepatocellular carcinoma cells (SMMC-7721 and Hep G2), human colon cancer cell lines (HCT116), human bladder carcinoma cells (EJ), and human lung cancer cells (H460).
(§2) Hepatocellular carcinoma cells (SMMC-7721 and Hep G2), Human colon cancer cell lines (HCT116), human bladder carcinoma cells (EJ) or human lung cancer cells (H460) at 10^4 cells per well were cultured in 10% FBS DMEM in 96-well flat-bottom microplates overnight. The cells were incubated in triplicate with, or without, different concentrations of each test compound for 48 h. During the last 4 h incubation, 30 μL of tetrazolium dye (MTT) solution (5 mg mL^−1) was added to each well. The resulting MTT-formazan crystals were dissolved in 150 μL DMSO, and absorbance was measured spectrophotometrically at 570 nm using an ELISA plate reader. The inhibition induced by each test compound at the indicated concentrations was expressed as a percentage. The concentration required for 50% inhibition (IC50) was calculated using the software (GraphPadPrism Version 4.03).

Hep G2 cells = assay: MTT assay, proliferation of Hep G2 cells; format: cell-based; conditions: Homo sapiens, HepG2, 48 h, read-out: In vitro cytotoxicity (IC50) Hep G2
Procedure: as §1, §2

[1] = tested on: human cancer cells (SMMC-7721, Hep G2, HCT116, EJ, H460); assay: MTT assay, summary statements across several human cancer cell lines; format: cell-based; conditions: Homo sapiens; SMMC-7721, Hep G2, HCT116; MTT; read-out: IC50 values for liver and colon cancer cells growth (range over cell lines)
Procedure: as §1, §2

SMMC-7721 cells [2] = assay: Flow cytometry assay of cell apoptosis (FITC-Annexin V/PI); format: cell-based, human; conditions: 14 μM, 48 h
Procedure: To determine whether apoptosis is involved in the anti-proliferative effects of 8h, apoptosis assay was performed using SMMC-7721 cells. The cells were incubated with either vehicle alone, different concentrations of 8h (7.0 or 14 μM), or 14 μM 5-FU for 48 h, and then stained with FITC-Annexin V and propidium iodide (PI). The percentages of apoptotic SMMC-7721 cells were determined by flow cytometry analysis. In the vehicle group, the occurrence of SMMC-7721 cell apoptosis was minimal. […] Low concentration of 8h (7.0 μM) induced 46% SMMC-7721 cell apoptosis, while the higher dose (14 μM) of 8h induced 63% SMMC-7721 cell apoptosis.
Figure 4 Compound 8h induced SMMC-7721 cell apoptosis in vitro. SMMC-7721 cells were incubated with the indicated concentrations of 8h and 14 μM 5-FU for 48 h, and the cells were stained with FITC-Annexin V and PI, followed by flow cytometry analysis. (A) Flow cytometry analysis. (B) Quantitative analysis of apoptotic cells. Data are expressed as means ± SD of the percentages of apoptotic cells from three independent experiments. *P < 0.01 vs control.
SMMC-7721 cells were cultured overnight and incubated in triplicate with compound 8h (7.0 and 14 μM), 5-FU (14 μM), or vehicle for 48 h. The cells were harvested, and stained with FITC-Annexin V and PI (BioVision) at room temperature for 15 min. The percentage of apoptotic cells was determined by flow cytometry (Beckman Coulter) analysis.

SMMC-7721 cells [3] = assay: MTT assay, proliferation of SMMC-7721 cells; format: cell-based, human; conditions: Homo sapiens; for IC50: SMMC-7721, 48 h, read-out: In vitro cytotoxicity (IC50) SMMC-7721, MTT assay, 48 h, SMMC-7721 human hepatocellular carcinoma cells
Procedure: as §1, §2

LO2 cells = assay: MTT assay, proliferation of normal liver LO2 cells; format: cell-based, human; conditions: 25 μM, 48 h, MTT assay
Procedure: Given the strong growth inhibitory activity of 8h in vitro, it was profiled for antitumor selectivity by examining its inhibitory effects on the growth of SMMC-7721 cells and LO2 cells (human hepatocellular normal cells).
Figure 3 (A) Inhibitory effects of 8h on the proliferation of SMMC-7721 and LO2 cells. Cells were incubated with the indicated concentrations of 8h for 48 h. Cell proliferation was assessed using the MTT assay. Data are means ± SD of the inhibition (%) from three independent experiments. (B) Inhibitory effects of 5h, 8h, and SA or the vehicle control against SMMC-7721 and LO2 cells. SMMC-7721 and LO2 cells were incubated with the indicated compounds at 25 μM for 48 h, and cell proliferation was assessed by the MTT assay. Data are means ± SD of the inhibition (%) from three independent experiments. *P < 0.01 versus control of SMMC-7721, ^#P < 0.01 inhibitory effects of 8h in SMMC-7721 versus LO2 cells.
as §2

| IC50 [1] [µM] | SMILES | IC50 (HCT116 cells) [µM] | IC50 (Hep G2 cells) [µM] | SMMC-7721 cell apoptosis (percentage of apoptotic cells) (SMMC-7721 cells [2]) [%] | IC50 (SMMC-7721 cells [3]) [µM] | Inhibitory effect on LO2 cells (LO2 cells) | inhibition at 25 µM (SMMC-7721 cells [3]; SMMC-7721, 25 μM, 48 h, MTT assay, read-out: Inhibition of SMMC-7721 cell proliferation) [%] |
| --- | --- | --- | --- | --- | --- | --- | --- |
| 19.6 to 35.2 | O=c1[nH]cc(F)c(=O)[nH]1 [5-FU, 5-fluorouracil, reference compound] | 19.6 | 35.2 | 22 | 28.7 | – | – |
| – | Cc1nc(C(=O)NCCCCCN)cc2c1[nH]c1ccccc12 [5h, N-(5-Aminopentyl)-1-methyl-9H-pyrido[3,4-b]indole-3-carboxamide] | – | – | – | 27.2 ± 3.4 | a similar effect was seen in the non-tumor LO2 cells; also recorded: high toxicities | ~42 |
